Measurements reported in patent US8642612B2, “Nicotinic desensitizers and methods of selecting, testing, and using them” (Potomac Pharmaceuticals, Inc., priority 2006, dated 2014).
Read-outs that look alike come from different tables or passages of the source.

Experiments:
rat α3β4 nAChRs [1] = target: T1, rat α3β4 nAChRs (Rattus norvegicus, UniProt P04757+P12392); assay: Inhibition of nicotine-stimulated 86Rb+ efflux, cells expressing rat α3β4 nAChRs; assay type: cell-based
T1 construct: expressed in transfected cells; the efflux text says only stably transfected cells
Experimental: (§1) In brief, cells were plated into 24-well plates coated with poly-D-lysine. […] The cells were then incubated in growth medium (0.5 ml/well) containing ^86Rb^+ (2 μCi/ml) for 4 hour at 37° C. The loading mixture was then aspirated, and the cells were washed four times with 1 ml buffer (15 mM HEPES, 140 mM NaCl, 2 mM KCl, 1 mM MgSO4, 1.8 mM CaCl2, 11 mM Glucose, pH 7.4). One ml of buffer with or without compounds to be tested was then added to each well. After incubation for 2 min, the assay buffer was collected for measurements of ^86Rb^+ released from the cells. Cells were then lysed by adding 1 ml of 100 mM NaOH to each well, and the lysate was collected for determination of the amount of ^86Rb^+ that was in the cells at the end of the efflux assay. Radioactivity of assay samples and lysates was measured by liquid scintillation counting. Total loading (cpm) was calculated as the sum of the assay sample and the lysate of each well. The amount of ^86Rb^+ efflux was expressed as a percentage of […] loaded. […] IC50 values were determined by nonlinear least-squares regression analyses (GraphPad, San Diego, Calif.).

rat α3β4 nAChRs [2] = target: T1, rat α3β4 nAChRs; assay: [3H]epibatidine competition binding, rat α3β4 nAChRs expressed in HEK cells
Experimental: (§2) Briefly, cultured cells at >80% confluence were removed from their flasks (80 cm^2) with a disposable cell scraper and placed in 10 ml of 50 mM Tris HCl buffer (pH 7.4, 4° C.). The cell suspension was centrifuged at 10,000×g for 5 min and the pellet was collected. For cells treated chronically with nicotinic agonists during culturing, the pellet was washed two more times by centrifugation in fresh buffer to remove residual drug. The cell pellet was then homogenized in 10 ml buffer with a polytron homogenizer (Model PT2100, 12 mm aggregate, 26,000 rpm, 20 seconds) and centrifuged at 36,000 g for 10 min at 4° C. The membrane pellet was resuspended in fresh buffer, and aliquots of the membrane preparation equivalent to 30 to 200 μg protein were used for binding assays. […] Bound and free ligands were separated by vacuum filtration through Whatman GF/C filters treated with 0.5% polyethylenimine. The filter-retained radioactivity was measured by liquid scintillation counting. Specific binding was defined as the difference between total binding and nonspecific binding. Data from saturation and competition binding assays were analyzed using Prism 4 (GraphPad Software, San Diego, Calif.).
(§3) All ligand binding assays were carried out using rat or human nAChRs heterologously expressed in human cells or in native rat brain tissues.

rat α4β2 nAChRs = target: T2, rat α4β2 nAChRs (Rattus norvegicus, UniProt P09483+P12390); assay: [3H]epibatidine competition binding, rat α4β2 nAChRs expressed in HEK cells
T2 construct: expressed in transfected cells; host or cells: HEK cells (membrane homogenates)
Experimental: as §2, with “drug.” for “drug. The cell pellet was then homogenized in 10 ml buffer with a polytron homogenizer (Model PT2100, 12 mm aggregate, 26,000 rpm, 20 seconds) and centrifuged at 36,000 g for 10 min at 4° C. The membrane pellet was resuspended in fresh buffer, and aliquots of the membrane preparation equivalent to 30 to 200 μg protein were used for binding assays.”
as §3

human α4β2 nAChRs [3] = target: T3, human α4β2 nAChRs (Homo sapiens, UniProt P17787+P43681); assay: Inhibition of nicotine-stimulated 86Rb+ efflux, cells expressing human α4β2 nAChRs; assay type: cell-based
T3 construct: expressed in transfected cells; the efflux text says only stably transfected cells
Experimental: as §1

human α4β2 nAChRs [4] = target: T3, human α4β2 nAChRs; assay: biochemical; assay type: binding
Experimental: as §2, §3

human α4β2 nAChRs [5] = target: T3, human α4β2 nAChRs; assay type: cell-based; settings: for Agonist Activity α4β2: stimulation of 86Rb+ efflux
Experimental: as §1
(§4) The agonist activities of ligands on nAChRs were assessed by measuring agonist-stimulated ^86Rb^+ efflux from stably transfected cells.

rat α3β4 nAChRs [6] = target: T1, rat α3β4 nAChRs; assay type: cell-based; settings: for Agonist Activity α3β4: stimulation of 86Rb+ efflux
Experimental: as §1, §4

[7] = added simultaneously with nicotine

## OCCCCC#Cc1cncc(OC[C@@H]2CCN2)c1 [Sazetidine-A, 6-(5-(((S)-azetidin-2-yl)methoxy)pyridin-3-yl)hex-5-yn-1-ol]
Rat α3β4 nAChRs [1]; 10 min preincubation
  blocking of α3β4 nAChRs: ineffective
Rat α3β4 nAChRs [1]; Acute Antagonist Potency (IC50(A), nM) α3β4, applied simultaneously with nicotine
  IC50: > 10000 nM
Rat α3β4 nAChRs [1]; Desensitization Potency (IC50(D,10 min), nM) α3β4, 10 min pretreatment before nicotine
  IC50: > 10000 nM
Rat α3β4 nAChRs [1]; IC50 α3β4 nAChRs, 0 min Pretreatment, added simultaneously with 100 μM nicotine, mean ± SEM of 3 to 7 experiments
  IC50: > 10000 nM
Rat α3β4 nAChRs [1]; IC50 α3β4 nAChRs, 10 min Pretreatment, 10 min preincubation, then 100 μM nicotine, mean ± SEM of 3 to 7 experiments
  IC50: > 10000 nM
Rat α3β4 nAChRs [1]; [7]
  acute antagonist activity, blockade of nicotine-stimulated 86Rb+ efflux, α3β4: no antagonist activity
Rat α3β4 nAChRs [2]
  Ki: 10000 nM
Rat α4β2 nAChRs
  Ki: 0.41 ± 0.16 nM
Rat α4β2 nAChRs; ratio of Ki values
  Selectivity (Ki ratio: rat α3β4/rat α4β2): 24,000
Rat α4β2 nAChRs; read-out: Equilibrium binding affinity (Ki, nM) α4β2, example tables, species not given
  Ki: 0.41 nM
Human α4β2 nAChRs [3]; 10 min preincubation
  concentration that nearly completely inhibited nicotine activation of α4β2 receptors: ~200 nM
Human α4β2 nAChRs [3]; Acute Antagonist Potency (IC50(A), nM) α4β2, applied simultaneously with nicotine
  IC50: ≥ 10000 nM
Human α4β2 nAChRs [3]; Desensitization Potency (IC50(D,10 min), nM) α4β2, 10 min pretreatment before nicotine
  IC50: 26 nM
Human α4β2 nAChRs [3]; IC50 α4β2 nAChRs, 0 min Pretreatment, added simultaneously with 100 μM nicotine, mean ± SEM of 3 to 7 experiments
  IC50: > 10000 nM
Human α4β2 nAChRs [3]; IC50 α4β2 nAChRs, 10 min Pretreatment, 10 min preincubation, then 100 μM nicotine, mean ± SEM of 3 to 7 experiments
  IC50: ~30 nM
Human α4β2 nAChRs [3]; [7]
  acute antagonist activity, blockade of nicotine-stimulated 86Rb+ efflux, α4β2: no antagonist activity
Human α4β2 nAChRs [4]
  Ki: 0.64 ± 0.32 nM
Human α4β2 nAChRs [5]; human α4β2 receptors, mean ± SEM, FIG. 2A
  EC50 for activation of channel function (86Rb+ efflux): could not be calculated
Human α4β2 nAChRs [5]
  Agonist Activity α4β2: Not detected
Human α4β2 nAChRs [5]; listed as sazetidine-A
  Agonist Activity α4β2: no agonist activity
Rat α3β4 nAChRs [6]; rat α3β4 receptors, mean ± SEM, FIG. 2B
  EC50 for activation of channel function (86Rb+ efflux): could not be calculated
Rat α3β4 nAChRs [6]
  Agonist Activity α3β4: Not detected
Rat α3β4 nAChRs [6]; listed as sazetidine-A
  Agonist Activity α3β4: no agonist activity
